Measured values from US20140350081A1, “INSECT G-COUPLED RECEPTORS USEFUL AS TARGETS FOR INSECTICIDES AND COMPOUNDS AND REAGENTS IDENTIFIED USING THE SAME” (priority 2011, published 2014).
Counter-ions that a name gives are not always drawn. Like-named read-outs stand apart in the source and are kept apart here.

Molecular target: AaDOP2 (Aedes aegypti, UniProt H6D5H2)
Assay: HTRF cAMP accumulation concentration response assay (Cisbio Dynamic 2)
Assay type: cell-based
[1] = in vitro Concentration Response Curve assay, n = 2, relative to control antagonist Amitriptyline, read-out: Avg IC50
[2] = AaDOP2 expressing cells in the presence of dopamine, No Inhibition = <10% inhibition at 3 μM test compound, read-out: IC50 ± S.E.M. (nM), HTRF cAMP assay

Sequence of AaDOP2 (H6D5H2 entry or part of it): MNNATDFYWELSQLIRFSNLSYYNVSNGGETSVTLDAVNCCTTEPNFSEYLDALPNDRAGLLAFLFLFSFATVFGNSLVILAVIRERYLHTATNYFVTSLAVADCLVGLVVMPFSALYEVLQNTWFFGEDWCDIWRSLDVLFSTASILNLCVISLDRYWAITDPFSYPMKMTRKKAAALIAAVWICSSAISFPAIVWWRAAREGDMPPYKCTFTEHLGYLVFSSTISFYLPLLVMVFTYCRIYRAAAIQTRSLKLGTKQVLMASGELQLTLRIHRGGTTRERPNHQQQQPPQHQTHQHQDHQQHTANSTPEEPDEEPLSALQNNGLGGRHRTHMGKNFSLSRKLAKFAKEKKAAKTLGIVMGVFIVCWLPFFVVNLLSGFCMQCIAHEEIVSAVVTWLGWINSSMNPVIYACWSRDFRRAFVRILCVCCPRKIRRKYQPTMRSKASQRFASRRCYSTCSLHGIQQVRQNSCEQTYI

| SMILES | IC50 [1] | further results |
| --- | --- | --- |
| CN1CCc2c(c3ccccc3n2Cc2ccccc2)C1 [ST088437, 2-methyl-5-benzyl-1,2,3,4-tetrahydropyridino[4,3-b]indole] | 1.97 µM | – |
| OCCN1CCN(c2nc(Nc3cccc(F)c3)c3cnn(-c4ccccc4)c3n2)CC1 [Compound G932-0674, 2-(4-(4-((3-fluorophenyl)amino)-1-phenyl-1H-pyrazolo[3,4-d]pyrimidin-6-yl)piperazin-1-yl)ethanol] | 1.48 µM | – |
| CCCC(=O)Nc1ccc(Nc2nc(C)cc(Nc3ccccc3)n2)cc1 [Compound G869-0097, N-(4-((4-methyl-6-(phenylamino)pyrimidin-2-yl)amino)phenyl)butyramide] | 6.05 µM | – |
| Cc1cc(N2CCCC2)nc(Nc2ccc(NC(=O)c3ccccc3Br)cc2)n1 [Compound G869-0472, 2-bromo-N-(4-((4-methyl-6-(pyrrolidin-1-yl)pyrimidin-2-yl)amino)phenyl)benzamide] | 19.4 µM | – |
| Cc1cc(Nc2ccccc2)nc(Nc2ccc(NC(=O)C(C)(C)C)cc2)n1 [Compound G869-0100, N-(4-((4-methyl-6-(phenylamino)pyrimidin-2-yl)amino)phenyl)pivalamide] | 2.08 µM | – |
| O=C1CC2(CCCC2)CC(=O)N1CCCCN1CCN(c2ncccn2)CC1 [Buspirone] | – | IC50 ± S.E.M. (nM), HTRF cAMP assay (AaDOP2 expressing cells in the presence of dopamine, No Inhibition = <10% inhibition at 3 μM test compound): No Inhibition^a |
| COc1ccc(Nc2cc(C)nc(Nc3ccc(NC(=O)c4c(F)cccc4Cl)cc3)n2)cc1 [Compound G869-0304, 2-chloro-6-fluoro-N-(4-((4-((4-methoxyphenyl)amino)-6-methylpyrimidin-2-yl)amino)phenyl)benzamide] | 7.17 µM | – |
| CCN1CCN(c2nc(Nc3ccccc3)c3cnn(-c4ccccc4)c3n2)CC1 [Compound G932-0245, 6-(4-ethylpiperazin-1-yl)-N,1-diphenyl-1H-pyrazolo[3,4-d]pyrimidin-4-amine] | 0.557 µM | – |
| COc1ccc(Nc2cc(C)nc(Nc3ccc(NC(=O)C(C)(C)C)cc3)n2)cc1 [Compound G869-0273, N-(4-((4-((4-methoxyphenyl)amino)-6-methylpyrimidin-2-yl)amino)phenyl)pivalamide] | 5.09 µM | – |
| Cc1cc(Nc2ccccc2)nc(Nc2ccc(NC(=O)c3ccccc3Cl)cc2)n1 [Compound G869-0127, 2-chloro-N-(4-((4-methyl-6-(phenylamino)pyrimidin-2-yl)amino)phenyl)benzamide] | 7.51 µM | – |
| Cc1cc(Nc2ccccc2)nc(Nc2ccc(NC(=O)C(C)C)cc2)n1 [Compound G869-0098, N-(4-((4-methyl-6-(phenylamino)pyrimidin-2-yl)amino)phenyl)isobutyramide] | 3.1 µM | – |
| CCCN1C[C@H](CSC)C[C@@H]2c3cccc4[nH]cc(c34)C[C@H]21 [Pergolide Mesylate, 8β-[(Methylthio)methyl]-6-propylergoline methanesulfonate salt] | 0.704 µM | – |
| CCN(CC)CCNc1nc(Nc2ccc(Cl)cc2)c2cnn(-c3ccccc3)c2n1 [Compound G932-0372, N4-(4-chlorophenyl)-N6-(2-(diethylamino)ethyl)-1-phenyl-1H-pyrazolo[3,4-d]pyrimidine-4,6-diamine] | 5.13 µM | – |
| N=C1SC(=Cc2cc3c(cc2Br)OCO3)C(=O)N1c1ccc(OC(F)(F)F)cc1 [ST052085, 5-[(6-bromo(2H-benzo[d]1,3-dioxolen-5-yl))methylene]-2-imino-3-[4-(trifluoromethoxy)phenyl]-1,3-thiazolidin-4-one] | 74.2 µM | – |
| OCCN1CCN(c2nc(Nc3ccccc3)c3cnn(-c4ccccc4)c3n2)CC1 [Compound G932-0232, 2-(4-(1-phenyl-4-(phenylamino)-1H-pyrazolo[3,4-d]pyrimidin-6-yl)piperazin-1-yl)ethanol] | 1.17 µM | – |
| COc1ccc(Nc2cc(C)nc(Nc3ccc(NC(C)=O)cc3)n2)cc1 [Compound G869-0268, N-(4-((4-((4-methoxyphenyl)amino)-6-methylpyrimidin-2-yl)amino)phenyl)acetamide] | 13.2 µM | – |

| SMILES | IC50 [1] | further results |
| --- | --- | --- |
| CCC(=O)Nc1ccc(Nc2nc(C)cc(Nc3ccccc3)n2)cc1 [Compound G869-0096, N-(4-((4-methyl-6-(phenylamino)pyrimidin-2-yl)amino)phenyl)propionamide] | 4.74 µM | – |
| CCc1nn(CCCN2CCN(c3cccc(Cl)c3)CC2)c(=O)n1CCOc1ccccc1 [Nefazodone HCl, 2-[3-[4-(3-chlorophenyl)-1-piperazinyl]propyl]-5-ethyl-2,4-dihydro-4-(2-phenoxyethyl)-3H-1,2,4-triazol-3-one hydrochloride] | – | IC50: 4.88 µM |
| CN1CCN(c2nc(Nc3ccc(F)cc3)c3cnn(-c4ccccc4)c3n2)CC1 [Compound G932-0329, N-(4-fluorophenyl)-6-(4-methylpiperazin-1-yl)-1-phenyl-1H-pyrazolo[3,4-d]pyrimidin-4-amine] | 2.5 µM | – |
| COc1ccc2[nH]cc(CCNC(=O)C(=O)c3c(-c4ccccc4)n(C)c4ccccc34)c2c1 [ST077642, N-[2-(5-methoxyindol-3-yl)ethyl]-2-(1-methyl-2-phenylindol-3-yl)-2-oxoacetamide] | 17.6 µM | – |
| CCN1CCN(c2nc(Nc3ccc(F)cc3)c3cnn(-c4ccccc4)c3n2)CC1 [Compound G932-0345, 6-(4-ethylpiperazin-1-yl)-N-(4-fluorophenyl)-1-phenyl-1H-pyrazolo[3,4-d]pyrimidin-4-amin] | 4.54 µM | – |
| COc1ccc(C(=O)Nc2nc(-c3ccc4c(c3)OCCO4)cs2)cc1OC [ST075014, N-(4-(2H,3H-benzo[3,4-e]1,4-dioxin-6-yl)(1,3-thiazol-2-yl))(3,4-dimethoxyphenyl)carboxamide] | 8.31 µM | – |
| COc1ccccc1OCCNCC(O)COc1cccc2[nH]c3ccccc3c12 (stereo not shown) [Carvedilol, 1-(9H-Carbazol-4-yloxy)-3-[[2-(2-methoxyphenoxy)ethyl]amino]-2-propanol] | – | IC50 (Avg IC50 (μM), in vitro Concentration Response Curve assay, n = 2, relative to control antagonist Amitriptyline): 8.5 µM |
| Cc1nc2sccn2c(=O)c1CCN1CCC(=C(c2ccccc2)c2ccc(F)cc2)CC1 [Compound R59-022] | – | IC50 [2]: 0.053 ± 0.013 µM |
| CN1CCCC(n2nc(Cc3ccc(Cl)cc3)c3ccccc3c2=O)CC1 (stereo not shown) [Azelastine HCl, 4-[(4-chlorophenyl)methyl]-2-(1-methylazepan-4-yl)phthalazin-1-one hydrochloride] | – | IC50: 47.5 µM |
| Cc1ccccc1Nc1nc(N2CCN(C)CC2)nc2c1cnn2-c1ccccc1 [Compound G932-0129, 6-(4-methylpiperazin-1-yl)-1-phenyl-N-(o-tolyl)-1H-pyrazolo[3,4-d]pyrimidin-4-amine] | 3.49 µM | – |
| O=[N+]([O-])C1=Cc2ccccc2OC1c1ccc2c(c1)OCO2 (stereo not shown) [ST038696, 5-(3-nitro-2H-chromen-2-yl)-2H-benzo[d]1,3-dioxolane] | 5.51 µM | – |
| CCOC(=O)N1CCC(=C2c3ccc(Cl)cc3CCc3cccnc32)CC1 [Loratidine] | – | IC50 [2]: 18 µM |
| CC(C)(O)C#Cc1ccc2c3c(cccc13)C(=O)OC2=O [ST010134, 6-(3-hydroxy-3-methyl-but-1-ynyl)-benzo(de)isochromene-1,3-dione] | 0.952 µM | – |
| Cc1cc(Nc2ccccc2)nc(Nc2ccc(NC(=O)C3CCCCC3)cc2)n1 [Compound G869-0105, N-(4-((4-methyl-6-(phenylamino)pyrimidin-2-yl)amino)phenyl)cyclohexanecarboxamide] | 11.6 µM | – |
| CN1CCN(c2nc(Nc3cccc(F)c3)c3cnn(-c4ccccc4)c3n2)CC1 [Compound G932-0671, N-(3-fluorophenyl)-6-(4-methylpiperazin-1-yl)-1-phenyl-1H-pyrazolo[3,4-d]pyrimidin-4-amine] | 0.585 µM | – |
